Test results taken from patent US20070160553A1, “Use of agents for the cosmetic treatment of keratin-containing material” (WELLA AG, priority 2004, published 2007).
“And” between values parts separate entries of the source, which are not always exact repeats. Identical values can stand only once. Like-named read-outs stand apart in the source and are kept apart here.

Columns and labels:
[1] = shampoo as in Example 6, 2.0 wt. % active; 20 hairs; control without active 12.0
Description: The determination of the tear strength of hair, which is an indicator of the structural integrity of the hair cortex and thus a measure of the degree of damage, was carried out by tensile-elongation measurements common for these purposes. From each hair strand we selected 20 individual hairs and determined the individual hair diameters with a computer-controlled laser micrometer. Then, by means of a tensile-elongation tester (MTT 160/600 Series Miniature Tensile Tester, Serial No. 600.95.05.001, supplied by DIA-STRON Ltd, England), the force needed to tear the individual hairs was measured.
From these individual tear strength measurements which because of the different hair diameters gave different values, the bundle tensile strength (BTS) was calculated by taking 0.08 mm for a hair diameter (average diameter). By including the hair density, finally, the conversion into the unit of bundle tensile strength (cN/tex) was performed. The higher the numerical value of the bundle tensile strength, the lower is the hair damage.

[2] = active present in permanent wave products, compared to otherwise identically treated hair
From the text: Tear strength is viewed as a parameter for determining damage to hair; the higher the force needed to tear a hair, the better is the hair quality.

[3] = bleached hair, cycles until 63.2% of hairs are broken
From the text: The measurements of rubbing resistance make it possible to draw conclusions concerning the resistance of the hair to mechanical stresses. The measuring principle consists of exposing individual hair fibers to repeated (small) mechanical stresses and measuring the number of repeating cycles needed to make the material break. A higher number of stressing cycles indicates a higher resistance of the hair to mechanical stresses. The evaluation of the hair resistance test results, which initially consists only of determining the number of stressing cycles to hair breakage for each individual hair, is carried out by Weibull's reliability analysis. According to Weibull, the breakage frequency (here: hair breakage) can be described by the following equation: H=1−exp[−(x/Θ)]b linearized: lnln[1/(1−H)]=b(ln x)−b(ln Θ) H=breakage frequency (=cumulated hair breakage), normalized to 1 (1=100%) X=lifetime variable (=cycles to hair breakage) Θ=characteristic lifetime (number of cycles until 63.2% of the hairs are broken) b=shape parameter, slope of the fitted straight lines.
For the Weibull analysis, therefore, that data must be plotted as lnln(1/1−H) against Inx. After linear regression, the axial segment indicates b(ln Θ) and the slope gives b. The characteristic lifetime E is then obtained from exp[−(axial segment/slope)]. The longer the characteristic lifetime, the higher is the resistance of the hair to breakage.
Another important parameter for determining the condition of the hair or the degree of damage to the hair is the determination of the rubbing resistance as a measure of the mechanical weakening of the hair (see legend for FIG. 1) [sic].
To this end, after previous standardized bleaching, strands of human hair (of Caucasian origin), were subjected to the strongly weakening conditions of a permanent wave procedure or a hair tinting by standardized methods. Then, the ends of 20 individual hairs per sample, namely of 10 individual hairs per strand, were fastened to holders, and the rubbing resistance was measured.

[4] = Conventional hair-care effects (combability, luster, volume, friction); settings: in appropriate formulations
From the text: This is in stark contrast to the known hair-care actions of other representatives of this class of substances, for example of betaine (trimethylammonioacetate) or carnitine [3-hydroxy-4-(trimethylammonio)butyric acid]. […] Other hair-care criteria such as an increase in hair volume or an improvement in the hair fullness or hair styling were also not observed.
Tests for determining the triboelectric properties have also shown that depending on the use concentration of compounds of formulas (I) and (II) the electrostatic chargability of hair was reduced. […] This is particularly surprising considering that in no comparative test did the formulation containing as active ingredient a compound of formula (I) and (II) show a reduction in the mechanical coefficient of friction. […] The protective function therefore is independent of the typical hair-care criteria and consists only of attenuating the effects of hair-damaging factors.

SMILES: C[n+]1cccc(C(=O)[O-])c1.Cl [1-Methylpyridinium-3-carboxylate hydrochloride]
- antistatic effect (preparation containing 1% as the hydrochloride): statistically probable antistatic effect

SMILES: C[n+]1cccc(C(=O)[O-])c1 [1-methylpyridinium-3-carboxylate]
- hair strand volume after combing (electrostatic charge) (bleached strands, hair-treatment preparation with 0.5% active, 5 minutes, vs untreated control): obviously smaller volume than the untreated control hairs
- bundle tensile strength (BTS) [1]: 12.64±0.4 cN/tex and 12.64 cN/tex
- tear strength [2]: significant increase
- Characteristic Lifetime ([3]; hair tinting agent + 0.1% active): increase
- Characteristic Lifetime ([3]; hair tinting agent + 0.1% active, listed as 1-methylpyridium-3-carboxylate): 568
- Characteristic Lifetime ([3]; hair tinting agent + 1% active): even higher than those shown by the chemically untreated (unbleached, natural) hair
- Characteristic Lifetime ([3]; hair tinting agent + 1% active, listed as 1-methyl-pyridinium-3-carboxylate): further increase
- Characteristic Lifetime ([3]; hair tinting agent + 1% active, listed as 1-methylpyridium-3-carboxytate): 643
- Characteristic Lifetime ([3]; permanent wave formulation with 0.5% active, listed as 1-methylpyridium-3-carboxylate): 546

SMILES: C[N+](C)(C)CC(=O)[O-] [betaine, trimethylammonioacetate]
- combability [4]: pronounced improvement
- luster of the hair [4]: definitely improved
